Measurements reported in the METLIN SMRT retention time set (Domingo-Almenara et al. 2019).

Assay: gradient 5% acetonitrile 3 min, to 50% in 2 min, to 85% in 15 min, held 3 min, 100 µL/min
Conditions: column: Zorbax Extend-C18 2.1 x 50 mm; eluents: water / acetonitrile, 0.1% formic acid
In short: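 The mobile phases were water and acetonitrile, each with 0.1% formic acid, pumped at 100 μL/min through a Zorbax Extend-C18 column (2.1 × 50 mm, 1.8 μm). Pure standards were injected as mixtures of ~100 molecules and detected by a quadrupole time-of-flight mass spectrometer in positive and negative ionization mode. Retention time came from computationally picked adduct peaks, each inspected by hand.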

Structure (SMILES) | RP-LC retention time
Cc1cc(C)n(-c2ccnc(N3CCC(C(=O)N4CCC(C)CC4)CC3)n2)n1 | 920 s
COc1cccc(-c2noc(Cn3cnc4c(nnn4-c4ccccc4OC)c3=O)n2)c1 | 914 s
O=C(c1cn2nc(Cl)ccc2n1)N(Cc1ccccc1)Cc1ccco1 | 974 s
COc1ccc(Cl)cc1S(=O)(=O)N1CCC(C(N)=O)CC1 | 660 s
CCc1noc(-c2ccc(SCC(=O)N3CCN(c4ccccn4)CC3)nc2)n1 | 619 s
Cc1cc(Cl)ccc1NC(=O)N1CCCC1c1nncn1-c1ccccc1 (stereo unspecified) | 724 s
CC(Oc1cccc(Cl)c1)c1nc(-c2ccc3c(c2)nnn3CCC(=O)N2CCCC2)no1 (stereo unspecified) | 1010 s
O=C(NCc1ccco1)C1CN(S(=O)(=O)c2ccccc2)CC12CCCCC2 (stereo unspecified) | 942 s
COc1cc(C2C(C(=O)N3CCCCC3)=C(C)NC3=C2C(=O)CCC3)ccc1OC(C)=O (stereo unspecified) | 647 s
Cc1ccc2nc(-c3c(F)cccc3Cl)c(Nc3ccc4c(c3)OCO4)n2c1 | 700 s
CC(C)(C)c1nnc(NC(=O)C2CCN(C(=O)c3cccc(F)c3)CC2)s1 | 765 s
C[C@@H]1c2ccccc2CCN1C(=O)Cc1ccccc1F | 950 s
O=C(Oc1ccccc1)N1CCC(CNC(=O)C2(c3ccccc3)CCOCC2)CC1 | 816 s
Cc1ccc(NC(=O)N2CC(c3nc(C(C)C)nn3C)C2)cc1F | 706 s
CC(C)NC(=O)N1CCCC(c2nc(C(C)C)no2)CCNC(=O)CC1 (stereo unspecified) | 658 s
CCOC(=O)c1c(S(=O)(=O)N2CCC(C(=O)Nc3nc(C)cs3)CC2)c(C)n(C)c1C | 780 s
O=C(O)c1nnn(-c2ccc(Cl)cc2)c1-c1ccncc1 | 663 s
COC(=O)c1ncn2c1C(=O)N(Cc1ccccc1)C(C)(C(=O)NCc1ccc(C)cc1)C2 (stereo unspecified) | 734 s
O=C(NCCCN1CCCC1=O)c1ccc(-c2ccc(N3CCSCC3)nc2)cc1 | 619 s
COc1ccc(-c2cc3n(n2)CCCN(S(=O)(=O)c2ccc(C(C)=O)cc2)C3)cc1 | 882 s
O=C(Nc1ccccc1C(F)(F)F)N1CC(n2cnnc2-c2ccccc2)C1 | 710 s
CCCN(CCC)C(=O)C1CCC(=O)N1S(=O)(=O)c1ccc(C)cc1 (stereo unspecified) | 943 s

Structure (SMILES) | RP-LC retention time
Cc1ccc(-c2cn3c(n2)N(C(=O)Cn2ccnc2C)CCC3)cc1 | 628 s
Cc1cc(C)n(-c2nc3cc(Cl)ccc3nc2N2CCN(c3ccccn3)CC2)n1 | 754 s
O=C(c1ccc2ccnc(N3CCN(c4ccc(F)cc4)CC3)c2c1)N1CCCCC1 | 792 s
Cc1nnc(C2CCCCCN2C(=O)CCc2c(C)noc2C)o1 (stereo unspecified) | 674 s
Cc1ccc(F)c2c(=O)c3c([nH]c12)CCN(CC(=O)NC1CCCC1)C3 | 669 s
CN(C)C(=O)C1CN(C(=O)c2ccc(Br)cc2)CC12CCOCC2 (stereo unspecified) | 631 s
CC(=O)c1cccc(OC(=O)c2cc3c(C)nn(-c4ccccc4)c3s2)c1 | 1310 s
Cc1cc(C)nc(NC(=O)NCCCSc2ccccn2)n1 | 671 s
CC(=O)c1cccc(Nc2c(C(=O)OC(C)C)cnc3nc(C)ccc23)c1 | 694 s
O=C(NC1CCN(Cc2ccccc2)CC1)C1CC(=O)N(c2n[nH]c3cccc(F)c23)C1 (stereo unspecified) | 591 s
CCc1nc(N2CCC(C(=O)NCc3cc(OC)ccc3OC)CC2)c2c(C)scc2n1 | 691 s
Cc1ccc(-c2cc3c(=O)n(Cc4noc(CN5CCCCCC5)n4)ccn3n2)c(C)c1 | 724 s
CC(CNC(=O)c1cc2sc(Cl)cc2n1C)c1ccccc1 (stereo unspecified) | 1110 s
Cc1cc2c(cc1S(=O)(=O)N1CCCC1C(=O)NC1CCCCCCC1)OCC(=O)N2 (stereo unspecified) | 834 s
O=C(NC1CC1)[C@@H]1C[C@H](Oc2ccccc2)CN1C(=O)C1CCCC1 | 750 s
CCc1nc2cc(-c3noc(-c4cc(OC)cc(OC)c4)n3)ccc2o1 | 1210 s
O=C(c1cccn1Cc1noc(-c2ccc(Cl)cc2)n1)N1CCCC1 | 1020 s
Cc1oc(-c2[nH]ncc2C(=O)N(C)C)cc1S(=O)(=O)NCc1cccnc1 | 559 s
Fc1cccc(-c2nnc(Cc3nc(-c4ccc(Cl)cc4)no3)o2)c1 | 1110 s
CCN1C(=O)CN(C(=O)C2CC2)CC12CCOCC2 | 584 s
CSc1nc2cc(Oc3cccc(Cl)c3Cl)c(Cl)cc2[nH]1 | 1080 s
O=C(C1CCCO1)N1CCn2c(nnc2-c2ccccc2)C1 (stereo unspecified) | 608 s

Structure (SMILES) | RP-LC retention time
O=S(=O)(NC1CCCC1)c1ccc(-c2nnc(C3CCC3)o2)o1 | 900 s
COc1ccc(OC)c(-c2cc(C(=O)NCc3nc(C)no3)[nH]n2)c1 | 662 s
CCN(CC)CCNC(=O)c1c(-c2ccccc2)c(-c2ccccc2)nn(CC)c1=O | 666 s
CCN(CC)c1nc2cc(C(=O)N3CCN(c4ccccn4)CC3)ccc2c(=O)n1-c1ccccc1 | 693 s
Cc1ccc2nc(NC(=O)C3CC(=O)N(c4n[nH]c5cccc(F)c45)C3)sc2c1 (stereo unspecified) | 812 s
Cc1ccc(CN2C(=O)N(c3cccc(F)c3)c3ncccc3S2(=O)=O)cc1 | 1100 s
O=C(Nc1ccc2c(c1)OCCO2)N1CC[C@@H]2CN(Cc3ccccc3)[C@@H]2C1 | 796 s
COCCCNC(=O)CCc1cn(-c2ccccc2)nc1-c1ccc2c(c1)OCO2 | 841 s
Cc1ccc(C(=O)Nc2cccc(OCc3nnc(-c4ccc(Cl)cc4)o3)c2)s1 | 1100 s
CC1CCC(C(=O)Nc2cc3c(cc2N2CCOCC2)n(C)c(=O)c(=O)n3C)CC1 (stereo unspecified) | 782 s
COC(=O)c1ccc2c(=O)n(Cc3ccc(OC)cc3)c(N3CCC(C)CC3)nc2c1 | 1330 s
Cc1c(C#N)c2ccccc2n1CC(=O)NCc1ccc2c(c1)OCCCO2 | 856 s
CCCn1c(=O)sc2cc(S(=O)(=O)N3CCC(C(=O)Nc4ccccc4)CC3)ccc21 | 965 s
CCc1ccc(-c2nc(-c3ccc4oc(C)nc4c3)no2)cc1 | 1280 s
COc1ccc(NC(=O)Cn2nc3c(N4CCSCC4)nccn3c2=O)c(OC)c1 | 797 s
CCOC(=O)C1=C(C)NC2=C(C(=O)C(C(=O)OC)C(C)C2)C1c1ccc(F)cc1 (stereo unspecified) | 870 s
O=C(CN1C(=O)CCC1=O)Nc1ccc2c(c1)CN(C(=O)c1cccs1)CC2 | 630 s
CCOc1ccc(CNC(=O)Cn2ccc3ccc(N4CCOCC4)nc32)cc1 | 894 s
Cc1cccc(S(=O)(=O)Nc2ccc3c(c2)CCC(=O)N3C)c1 | 758 s
COCC(=O)N1CCCC(c2nc(CNC(=O)C3CCC3)cs2)C1 (stereo unspecified) | 597 s
Cc1cccc(NS(=O)(=O)c2cc(-c3[nH]ncc3C(=O)N3CCOCC3)oc2C)c1 | 683 s
Cc1nc(-c2ccc(-c3noc(-c4ccnn4C)n3)cc2)cs1 | 1060 s
